Measured values reported in the kinase profiling compilation of Christmann-Franck et al. (2016).

What was measured:
Test in all cases: radiometric filter-binding kinase assay, Kinase HotSpot
BRAF (human) = BRAF (human) (UniProt P15056); details: compound 0.5 µM; ATP 10 µM
SRPK1 (human) = SRPK1 (human) (UniProt Q96SB4); details: compound 0.5 µM; ATP 10 µM
NEK4 (human) = NEK4 (human) (UniProt P51957); details: compound 0.5 µM; ATP 10 µM
PRKCB2 (human) = PRKCB2 (human) (UniProt P05771); details: compound 0.5 µM; ATP 10 µM
MERTK (human) = MERTK (human) (UniProt Q12866); details: compound 0.5 µM; ATP 10 µM
MAP3K5 (human) = MAP3K5 (human) (UniProt Q99683); details: compound 0.5 µM; ATP 10 µM
PTK6 (human) = PTK6 (human) (UniProt Q13882); details: compound 0.5 µM; ATP 10 µM
PRKCD (human) = PRKCD (human) (UniProt Q05655); details: compound 0.5 µM; ATP 10 µM
MAP3K3 (human) = MAP3K3 (human) (UniProt Q99759); details: compound 0.5 µM; ATP 10 µM
PRKD3 (human) = PRKD3 (human) (UniProt O94806); details: compound 0.5 µM; ATP 10 µM
PASK (human) = PASK (human) (UniProt Q96RG2); details: compound 0.5 µM; ATP 10 µM
CHUK (human) = CHUK (human) (UniProt O15111); details: compound 0.5 µM; ATP 10 µM
DDR2 (human) = DDR2 (human) (UniProt Q16832); details: compound 0.5 µM; ATP 10 µM
MAPK14 (human) = MAPK14 (human) (UniProt Q16539); details: compound 0.5 µM; ATP 10 µM
DAPK1 (human) = DAPK1 (human) (UniProt P53355); details: compound 0.5 µM; ATP 10 µM
ACVR1 (human) = ACVR1 (human) (UniProt Q04771); details: compound 0.5 µM; ATP 10 µM
EGFR (human) = EGFR (human) (UniProt P00533); details: compound 0.5 µM; ATP 10 µM
CDK5 CDK5R1 p35 (human) = CDK5 CDK5R1 p35 (human) (UniProt Q00535+Q15078); details: compound 0.5 µM
RPS6KB2 (human) = RPS6KB2 (human) (UniProt Q9UBS0); details: compound 0.5 µM; ATP 10 µM
TEK (human) = TEK (human) (UniProt Q02763); details: compound 0.5 µM; ATP 10 µM
CSNK1G1 (human) = CSNK1G1 (human) (UniProt Q9HCP0); details: compound 0.5 µM; ATP 10 µM
LCK (human) = LCK (human) (UniProt P06239); details: compound 0.5 µM; ATP 10 µM
CLK2 (human) = CLK2 (human) (UniProt P49760); details: compound 0.5 µM; ATP 10 µM
RPS6KA2 KD1 KD2 (human) = RPS6KA2 KD1 KD2 (human) (UniProt Q15349); details: compound 0.5 µM; ATP 10 µM
PAK6 (human) = PAK6 (human) (UniProt Q9NQU5); details: compound 0.5 µM; ATP 10 µM
CDC42BPB (human) = CDC42BPB (human) (UniProt Q9Y5S2); details: compound 0.5 µM; ATP 10 µM
ERBB4 (human) = ERBB4 (human) (UniProt Q15303); details: compound 0.5 µM; ATP 10 µM
GSK3B (human) = GSK3B (human) (UniProt P49841); details: compound 0.5 µM; ATP 10 µM
FGFR3 (human) = FGFR3 (human) (UniProt P22607); details: compound 0.5 µM; ATP 10 µM
FER (human) = FER (human) (UniProt P16591); details: compound 0.5 µM; ATP 10 µM
KIT (human) = KIT (human) (UniProt P10721); details: compound 0.5 µM; ATP 10 µM
FGFR2 (human) = FGFR2 (human) (UniProt P21802); details: compound 0.5 µM; ATP 10 µM
AURKB (human) = AURKB (human) (UniProt Q96GD4); details: compound 0.5 µM; ATP 10 µM
PIM1 (human) = PIM1 (human) (UniProt P11309); details: compound 0.5 µM; ATP 10 µM
MAPKAPK2 (human) = MAPKAPK2 (human) (UniProt P49137); details: compound 0.5 µM; ATP 10 µM
NUAK1 (human) = NUAK1 (human) (UniProt O60285); details: compound 0.5 µM; ATP 10 µM

Chain of KIT (human) (P10721 whole entry, looked up): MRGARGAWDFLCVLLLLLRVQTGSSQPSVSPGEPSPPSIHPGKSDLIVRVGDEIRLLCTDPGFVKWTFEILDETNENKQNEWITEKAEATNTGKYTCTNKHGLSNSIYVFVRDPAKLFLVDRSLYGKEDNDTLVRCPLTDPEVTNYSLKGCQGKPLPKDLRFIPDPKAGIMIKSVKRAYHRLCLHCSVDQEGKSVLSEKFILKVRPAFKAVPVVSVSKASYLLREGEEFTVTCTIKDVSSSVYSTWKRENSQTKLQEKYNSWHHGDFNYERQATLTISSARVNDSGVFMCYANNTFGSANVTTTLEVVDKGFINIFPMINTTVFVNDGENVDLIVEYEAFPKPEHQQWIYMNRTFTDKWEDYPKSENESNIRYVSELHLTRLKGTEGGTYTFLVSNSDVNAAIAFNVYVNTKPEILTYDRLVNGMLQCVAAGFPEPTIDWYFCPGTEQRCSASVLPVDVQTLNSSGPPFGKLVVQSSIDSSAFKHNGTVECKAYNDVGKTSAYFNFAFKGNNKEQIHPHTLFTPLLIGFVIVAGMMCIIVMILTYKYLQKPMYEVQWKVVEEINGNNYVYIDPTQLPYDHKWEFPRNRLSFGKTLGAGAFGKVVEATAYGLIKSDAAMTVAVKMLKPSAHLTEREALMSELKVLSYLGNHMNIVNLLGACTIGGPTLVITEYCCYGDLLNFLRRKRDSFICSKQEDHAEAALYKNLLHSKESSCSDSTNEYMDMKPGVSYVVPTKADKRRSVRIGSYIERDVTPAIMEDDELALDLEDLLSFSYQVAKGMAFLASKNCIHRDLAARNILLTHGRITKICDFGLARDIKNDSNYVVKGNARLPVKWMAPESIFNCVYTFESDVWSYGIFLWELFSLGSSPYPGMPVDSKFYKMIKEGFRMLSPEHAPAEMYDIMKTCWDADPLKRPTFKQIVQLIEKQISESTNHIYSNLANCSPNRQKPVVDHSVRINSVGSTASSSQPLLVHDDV
Chain of BRAF (human) (P15056 whole entry, looked up): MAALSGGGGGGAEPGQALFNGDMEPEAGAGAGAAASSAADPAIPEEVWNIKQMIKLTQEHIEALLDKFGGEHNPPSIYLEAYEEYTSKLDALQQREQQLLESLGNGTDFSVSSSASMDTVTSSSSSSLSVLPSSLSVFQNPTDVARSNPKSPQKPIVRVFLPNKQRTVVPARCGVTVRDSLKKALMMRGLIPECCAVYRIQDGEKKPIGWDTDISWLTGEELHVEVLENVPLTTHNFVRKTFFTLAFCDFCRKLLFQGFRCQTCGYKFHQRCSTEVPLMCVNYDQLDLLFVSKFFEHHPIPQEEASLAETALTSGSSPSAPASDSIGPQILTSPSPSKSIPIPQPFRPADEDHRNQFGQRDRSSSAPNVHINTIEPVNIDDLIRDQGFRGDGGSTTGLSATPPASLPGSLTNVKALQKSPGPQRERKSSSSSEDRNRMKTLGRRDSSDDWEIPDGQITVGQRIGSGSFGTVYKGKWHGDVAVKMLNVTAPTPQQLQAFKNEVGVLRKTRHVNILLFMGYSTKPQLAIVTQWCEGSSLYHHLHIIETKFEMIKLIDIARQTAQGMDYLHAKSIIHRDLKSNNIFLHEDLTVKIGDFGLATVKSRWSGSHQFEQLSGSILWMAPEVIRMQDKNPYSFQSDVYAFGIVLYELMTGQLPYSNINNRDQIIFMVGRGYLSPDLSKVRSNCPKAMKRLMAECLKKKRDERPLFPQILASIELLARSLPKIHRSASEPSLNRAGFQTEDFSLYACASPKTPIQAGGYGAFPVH
Chain of PAK6 (human) (Q9NQU5 whole entry, looked up): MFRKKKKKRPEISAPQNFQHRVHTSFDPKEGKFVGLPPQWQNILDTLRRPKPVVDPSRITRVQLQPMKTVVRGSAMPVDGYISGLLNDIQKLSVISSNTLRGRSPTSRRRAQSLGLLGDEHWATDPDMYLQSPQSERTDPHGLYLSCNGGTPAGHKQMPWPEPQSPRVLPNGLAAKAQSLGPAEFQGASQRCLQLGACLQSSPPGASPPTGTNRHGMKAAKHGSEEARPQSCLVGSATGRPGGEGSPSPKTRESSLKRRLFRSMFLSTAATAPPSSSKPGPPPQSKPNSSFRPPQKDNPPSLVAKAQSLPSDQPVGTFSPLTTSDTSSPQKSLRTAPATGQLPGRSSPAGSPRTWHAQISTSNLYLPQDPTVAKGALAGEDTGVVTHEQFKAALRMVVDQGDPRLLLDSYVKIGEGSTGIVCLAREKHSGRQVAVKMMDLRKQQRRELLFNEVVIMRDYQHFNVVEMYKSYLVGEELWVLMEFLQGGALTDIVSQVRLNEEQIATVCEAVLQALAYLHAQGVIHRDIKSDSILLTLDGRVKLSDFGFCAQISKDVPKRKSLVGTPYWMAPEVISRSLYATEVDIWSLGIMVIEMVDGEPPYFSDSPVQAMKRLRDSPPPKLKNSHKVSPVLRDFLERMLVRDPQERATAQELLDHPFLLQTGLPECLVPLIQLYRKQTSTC
Chain of MAPKAPK2 (human) (P49137 whole entry, looked up): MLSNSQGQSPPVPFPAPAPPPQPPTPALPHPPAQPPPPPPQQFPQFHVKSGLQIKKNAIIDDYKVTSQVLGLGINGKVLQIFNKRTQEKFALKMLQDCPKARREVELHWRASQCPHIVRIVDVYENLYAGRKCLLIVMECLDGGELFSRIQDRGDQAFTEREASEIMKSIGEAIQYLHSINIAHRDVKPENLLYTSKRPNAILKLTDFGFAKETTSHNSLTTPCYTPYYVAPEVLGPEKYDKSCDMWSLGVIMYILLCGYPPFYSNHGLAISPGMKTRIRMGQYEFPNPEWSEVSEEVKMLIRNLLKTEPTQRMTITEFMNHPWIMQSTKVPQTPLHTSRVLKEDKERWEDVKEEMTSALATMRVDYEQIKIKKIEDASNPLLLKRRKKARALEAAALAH
Chain of TEK (human) (Q02763 whole entry, looked up): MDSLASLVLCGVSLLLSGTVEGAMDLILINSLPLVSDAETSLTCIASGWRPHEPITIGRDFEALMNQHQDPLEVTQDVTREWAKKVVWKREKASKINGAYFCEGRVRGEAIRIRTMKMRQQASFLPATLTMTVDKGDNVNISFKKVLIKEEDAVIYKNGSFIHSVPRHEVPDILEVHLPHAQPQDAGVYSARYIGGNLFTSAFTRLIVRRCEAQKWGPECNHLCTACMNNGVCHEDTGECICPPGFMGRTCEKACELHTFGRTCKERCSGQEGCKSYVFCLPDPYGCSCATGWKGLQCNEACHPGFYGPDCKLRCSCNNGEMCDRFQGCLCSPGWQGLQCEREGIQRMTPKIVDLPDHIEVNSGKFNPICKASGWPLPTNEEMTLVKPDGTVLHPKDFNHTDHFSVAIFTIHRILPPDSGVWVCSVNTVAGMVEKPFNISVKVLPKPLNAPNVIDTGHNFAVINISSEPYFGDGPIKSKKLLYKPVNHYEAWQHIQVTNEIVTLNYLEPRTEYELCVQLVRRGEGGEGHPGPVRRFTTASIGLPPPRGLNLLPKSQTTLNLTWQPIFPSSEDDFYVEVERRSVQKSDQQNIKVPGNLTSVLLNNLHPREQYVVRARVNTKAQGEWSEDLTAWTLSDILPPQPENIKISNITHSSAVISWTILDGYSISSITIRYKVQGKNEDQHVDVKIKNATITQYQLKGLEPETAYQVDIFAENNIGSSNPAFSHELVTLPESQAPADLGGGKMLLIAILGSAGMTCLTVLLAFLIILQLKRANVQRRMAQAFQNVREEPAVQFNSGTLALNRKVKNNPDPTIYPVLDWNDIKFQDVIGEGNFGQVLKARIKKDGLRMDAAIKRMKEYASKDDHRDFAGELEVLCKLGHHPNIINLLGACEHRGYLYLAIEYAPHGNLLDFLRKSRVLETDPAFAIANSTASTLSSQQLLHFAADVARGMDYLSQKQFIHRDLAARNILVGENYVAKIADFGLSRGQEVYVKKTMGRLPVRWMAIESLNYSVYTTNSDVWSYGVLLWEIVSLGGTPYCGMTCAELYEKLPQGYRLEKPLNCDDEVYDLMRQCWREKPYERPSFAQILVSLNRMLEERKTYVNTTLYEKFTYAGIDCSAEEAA
Chain of CHUK (human) (O15111 whole entry, looked up): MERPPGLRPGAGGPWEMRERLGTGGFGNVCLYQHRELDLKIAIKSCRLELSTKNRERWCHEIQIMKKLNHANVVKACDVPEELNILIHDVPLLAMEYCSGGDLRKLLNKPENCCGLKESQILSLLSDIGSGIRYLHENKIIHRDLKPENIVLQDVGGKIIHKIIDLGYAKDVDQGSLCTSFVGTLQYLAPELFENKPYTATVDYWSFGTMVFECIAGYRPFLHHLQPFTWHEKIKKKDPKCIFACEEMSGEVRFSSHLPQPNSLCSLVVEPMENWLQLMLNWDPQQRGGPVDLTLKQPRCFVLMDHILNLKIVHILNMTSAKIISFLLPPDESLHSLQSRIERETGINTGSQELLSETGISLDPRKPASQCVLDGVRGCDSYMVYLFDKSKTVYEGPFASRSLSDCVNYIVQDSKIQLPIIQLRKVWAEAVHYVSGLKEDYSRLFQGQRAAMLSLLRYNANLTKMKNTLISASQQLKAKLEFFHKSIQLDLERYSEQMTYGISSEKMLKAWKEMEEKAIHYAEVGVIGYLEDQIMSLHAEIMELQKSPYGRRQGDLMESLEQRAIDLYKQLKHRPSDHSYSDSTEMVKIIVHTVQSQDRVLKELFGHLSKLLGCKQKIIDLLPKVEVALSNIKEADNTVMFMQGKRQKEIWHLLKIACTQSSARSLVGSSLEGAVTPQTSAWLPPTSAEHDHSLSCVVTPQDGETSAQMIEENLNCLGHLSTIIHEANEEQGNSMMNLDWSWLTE
Chain of AURKB (human) (Q96GD4 whole entry, looked up): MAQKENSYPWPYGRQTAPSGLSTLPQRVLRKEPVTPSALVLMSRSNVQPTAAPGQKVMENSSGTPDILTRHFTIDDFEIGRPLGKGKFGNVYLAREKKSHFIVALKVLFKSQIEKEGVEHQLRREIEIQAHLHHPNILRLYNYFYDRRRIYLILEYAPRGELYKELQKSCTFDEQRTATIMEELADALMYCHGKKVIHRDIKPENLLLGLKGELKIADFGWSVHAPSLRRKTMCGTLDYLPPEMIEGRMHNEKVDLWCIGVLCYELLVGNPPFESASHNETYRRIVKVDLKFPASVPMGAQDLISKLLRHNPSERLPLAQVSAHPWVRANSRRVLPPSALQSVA

Row | Compound | residual activity (BRAF (human)) | residual activity (SRPK1 (human)) | residual activity (NEK4 (human)) | residual activity (PRKCB2 (human)) | residual activity (MERTK (human)) | residual activity (MAP3K5 (human)) | residual activity (PTK6 (human)) | residual activity (PRKCD (human)) | residual activity (MAP3K3 (human)) | residual activity (PRKD3 (human)) | residual activity (PASK (human)) | residual activity (CHUK (human)) | residual activity (DDR2 (human)) | residual activity (MAPK14 (human)) | residual activity (DAPK1 (human)) | residual activity (ACVR1 (human)) | residual activity (EGFR (human)) | residual activity (RPS6KB2 (human)) | residual activity (TEK (human)) | residual activity (CSNK1G1 (human)) | other results
1 | N#CCCc1ccc2c(c1)-c1[nH]c3ccc([N+](=O)[O-])cc3c1CC(=O)N2 | 99.3% | 107% | 104% | 76.3% | 77.5% | 101% | 94.6% | 74.9% | 83.3% | 84% | 96.9% | 105% | 105% | 91.8% | 96.5% | 58.8% | 94.4% | 96.1% | 97.6% | 81.6% | residual activity (CDK5 CDK5R1 p35 (human); ATP 10 µM): 2.6%; residual activity (LCK (human)): 78.2%; residual activity (CLK2 (human)): 104%; residual activity (RPS6KA2 KD1 KD2 (human)): 24.4%; residual activity (PAK6 (human)): 104%; residual activity (CDC42BPB (human)): 54.1%; residual activity (ERBB4 (human)): 91.8%; residual activity (GSK3B (human)): 2.71%; residual activity (FGFR3 (human)): 90.3%; residual activity (FER (human)): 72.7%; residual activity (KIT (human)): 76.6%; residual activity (FGFR2 (human)): 93.2%; residual activity (AURKB (human)): 80%; residual activity (PIM1 (human)): 93.6%; residual activity (MAPKAPK2 (human)): 83.4%; residual activity (NUAK1 (human)): 14.1%
2 | CCOc1cc2ncnc(Nc3cccc(Br)c3)c2cc1OCC | 97.1% | 102% | 84.8% | 98.6% | 87.1% | 116% | 27.7% | 100% | 92.9% | 95.4% | 92.3% | 105% | 100% | 87.5% | 77.4% | 97.1% | 2.02% | 102% | 96.4% | 107% | residual activity (CDK5 CDK5R1 p35 (human); ATP 10 µM): 99.2%; residual activity (LCK (human)): 52.9%; residual activity (CLK2 (human)): 92.6%; residual activity (RPS6KA2 KD1 KD2 (human)): 74.5%; residual activity (PAK6 (human)): 119%; residual activity (CDC42BPB (human)): 107%; residual activity (ERBB4 (human)): 34.3%; residual activity (GSK3B (human)): 96.8%; residual activity (FGFR3 (human)): 103%; residual activity (FER (human)): 90.7%; residual activity (KIT (human)): 74.4%; residual activity (FGFR2 (human)): 96.3%; residual activity (AURKB (human)): 91.9%; residual activity (PIM1 (human)): 92.1%; residual activity (MAPKAPK2 (human)): 101%; residual activity (NUAK1 (human)): 94%
3 | O=c1[nH]c2ccccc2n1C1CCN(Cc2ccc(-c3nc4cc5[nH]cnc5cc4nc3-c3ccccc3)cc2)CC1 | 101% | 106% | 106% | 105% | 96.2% | 93.8% | 91.1% | 98.8% | 101% | 99.5% | 110% | 90.1% | 99.2% | 99.7% | 82.9% | 102% | 99.8% | 102% | 102% | 99.3% | residual activity (CDK5 CDK5R1 p35 (human)): 91.9%; residual activity (LCK (human)): 98.2%; residual activity (CLK2 (human)): 114%; residual activity (RPS6KA2 KD1 KD2 (human)): 101%; residual activity (PAK6 (human)): 109%; residual activity (CDC42BPB (human)): 101%; residual activity (ERBB4 (human)): 105%; residual activity (GSK3B (human)): 113%; residual activity (FGFR3 (human)): 101%; residual activity (FER (human)): 99.6%; residual activity (KIT (human)): 91.7%; residual activity (FGFR2 (human)): 94.2%; residual activity (AURKB (human)): 98.7%; residual activity (PIM1 (human)): 106%; residual activity (MAPKAPK2 (human)): 98.7%; residual activity (NUAK1 (human)): 103%
4 | Cc1cc(Nc2nc(-c3ccccc3)nc3ccccc23)n[nH]1 | 99.5% | 90.1% | 95% | 87.3% | 72.2% | 99.5% | 61.6% | 91.3% | 82.9% | 93.9% | 96.4% | 96.5% | 93.2% | 103% | 39.1% | 149% | 97.4% | 99.7% | 104% | 75.7% | residual activity (CDK5 CDK5R1 p35 (human); ATP 10 µM): 77.1%; residual activity (LCK (human)): 75.6%; residual activity (CLK2 (human)): 91.7%; residual activity (RPS6KA2 KD1 KD2 (human)): 50.7%; residual activity (PAK6 (human)): 78.9%; residual activity (CDC42BPB (human)): 87.1%; residual activity (ERBB4 (human)): 92%; residual activity (GSK3B (human)): 27.9%; residual activity (FGFR3 (human)): 71.7%; residual activity (FER (human)): 31.6%; residual activity (KIT (human)): 40.8%; residual activity (FGFR2 (human)): 83.7%; residual activity (AURKB (human)): 52%; residual activity (PIM1 (human)): 83.3%; residual activity (MAPKAPK2 (human)): 100%; residual activity (NUAK1 (human)): 3.88%
